Structure (SMILES) | melting point [°C]
CC(C)n1ncc2c(C(=O)O)cc(-c3ccccc3)nc21 | 198 to 200
COc1cccc(CNc2ccc3[nH]c(=O)[nH]c3c2)c1 | 190 to 192
CC(C)(C)OC(=O)NC1(C#N)CCCC1 | 106 to 108
CCOc1ccc(NS(=O)(=O)c2ccc(OC)c(N)c2)cc1 | 94 to 95
COC(=O)c1ccccc1-c1ccc(C=O)o1 | 68 to 72
COc1ccc(CCNC(C)=O)cc1S(N)(=O)=O | 194 to 196
CNC(=O)c1ccc([N+](=O)[O-])cc1Cl | 166 to 168
CC(C)(C)c1ccc(N2CCC(N)CC2)cc1 | 80 to 82
Cc1ncc(-c2ccccc2)cc1N | 139 to 141
O=C1OC(CCl)CN1c1ccccc1 (configuration not stated) | 103 to 105
Cc1c(C(=O)O)nnn1-c1ccccc1Cl | 165 to 167
COC(=O)c1c(C)cccc1S(=O)(=O)Cl | 53 to 55
CCc1c(N)cnn1C | 49 to 51
Cc1nn(CC(C)C)c(C)c1CC(=O)O | 106 to 110
Nc1nnc(SCc2ccccc2)s1 | 159 to 161
Nc1cc(N2CCCS2(=O)=O)ccc1F | 102 to 104
O=C(O)CSc1cc(Cl)ccc1Cl | 129 to 131
O=C(C=NO)Nc1cccc(C(F)(F)F)c1 | 115 to 117
Cc1csc(-c2ccc(N)cc2)n1 | 111 to 113
Nc1ccc(NC(=O)c2ccco2)cc1C(F)(F)F | 120 to 122
Cc1[nH]n(-c2ccc(Cl)c(Cl)c2)c(=N)c1C | 156 to 158
Cn1cnnc1CN | 32 to 34
Nc1cc(C2CCCCC2)no1 | 127 to 129
Cc1cc(C)c2c(C#N)c[nH]c2n1 | 316 to 318

Structure (SMILES) | melting point [°C]
Nc1ccccc1Oc1ncc(Cl)cc1Cl | 104 to 106
Oc1ccc(-c2nnco2)cc1 | 210 to 212
NCC(O)c1ccc(F)cc1 (configuration not stated) | 65 to 67
COc1cc(N)c(C(=O)O)c(Br)c1 | 134 to 136
COc1cccc(C2CC2C(=O)O)c1 (configuration not stated) | 90 to 92
Cc1ccc(C)n1-c1ccsc1C(=O)O | 185 to 187
O=C1CC(c2ccccc2F)C(=O)N1 (configuration not stated) | 97 to 99
CCOc1cc(C(=O)O)ccc1OCc1ccncc1 | 238 to 240
O=CNc1ccc(C(=O)O)cc1 | 264 to 266
Cc1ccc(C(NC(=O)CCl)c2cccs2)cc1 (configuration not stated) | 110 to 112
O=C(c1ccccc1F)N1CCC(O)CC1 | 104 to 106
O=C(O)C1CCCN(c2ccc(Cl)nn2)C1 (configuration not stated) | 179 to 181
Fc1ccc(COc2ccc(CCl)cc2)cc1 | 57 to 59
Cn1cc(OCc2ccccc2)c(=O)cc1CO | 221 to 223
O=C(O)c1csc(COc2ccc(Cl)cc2)n1 | 217 to 219
Cn1c(C2CC2)nc2c1CCNC2 | 169 to 171
CCOC(=O)C(=O)c1ncc(Cl)n1C | 46 to 48
CC(=O)CC(=O)NCCc1ccccc1 | 57 to 59
O=C(O)c1nn(-c2ccccc2C(F)(F)F)cc1O | 141 to 145
CC1(c2ccc3ccccc3c2)NC(=O)NC1=O (configuration not stated) | 190 to 192
CON(C)S(=O)(=O)c1ccc(C(=O)O)cc1 | 210 to 212
Cc1nc(O)c2cc(Br)ccc2n1 | 219 to 221
Nc1ccc(S(N)(=O)=O)cc1F | 166 to 168
CCOC(=O)C1CN(Cc2ccccc2)CCC1=O (configuration not stated) | 161 to 163

Structure (SMILES) | melting point [°C]
O=C(Nc1cccc(Cl)c1)OCC(F)(F)F | 35 to 37
CC(=O)N1CCN(CC(N)=NO)CC1 | 199 to 201
O=C(O)CCNS(=O)(=O)c1ccccc1C(F)(F)F | 142 to 144
NC(CSCc1cccc2cccnc12)C(=O)O (configuration not stated) | 171 to 173
COc1ccc(Cl)cc1CCl | 44 to 46
O=C(O)c1occc1-c1ccc(F)cc1 | 147 to 149
Nc1ccc(Br)c(C(=O)O)c1 | 171 to 179
CC(Cl)C(=O)Nc1ccccc1Br (configuration not stated) | 75 to 77
CCn1nc(C)c(C(C)=O)c1C | 30 to 32
CC(=O)c1nc2ccc(Cl)cc2[nH]1 | 173 to 175
NC1CCCOc2ccccc21 (configuration not stated) | 69 to 71
Cc1cc(C(=O)O)c(C(=O)O)s1 | 210 to 212
CC(NC(=O)OC(C)(C)C)C(O)Cc1ccccc1 (configuration not stated) | 116 to 118
ClCc1coc(-c2ccccc2Cl)n1 | 54 to 56
COC(=O)c1c(C2CC2)csc1N | 72 to 74
Nc1cccc(C(=O)NCc2ccccn2)c1 | 119 to 121
CCC(=O)c1cc(F)cc(Br)c1 | 29 to 31
NNc1nc2cc(C(F)(F)F)ccc2s1 | 219 to 221
CN1CCN(c2cc(CN)ccn2)CC1 | 72 to 74
CN(C)C(N)=NC(=N)N | 223 to 226
CCc1ccc(/C=C/c2cc(C(=O)O)c3cc(Br)ccc3n2)cc1 | 286 to 288
Cn1cc(/C=C/C(=O)O)c(=O)n(C)c1=O | 272 to 274
NNC(=O)CC1CC1 | 89 to 91
O=c1c2ccccc2nc(S)n1CCCN1CCOCC1 | 175 to 177

From a melting point compilation (Tetko et al.)
